# Results taken from patent US11241396B2 (Gateway Health Alliances, Inc., priority 2015, dated 2022).
# “Also recorded” adds a separate entry of the source. Like-named read-outs stand apart in the source and are kept apart here.
# What was measured:
# cyclooxygenase (COX) = conditions: in vitro studies; cited from earlier work
# platelets [1] = conditions: 10 mg daily for three months; cited from earlier work
# [2] = test system: human umbilical vein endothelial cells; conditions: 1 μM; cited from earlier work
# platelets [3] = conditions: 10-1,000 μM in vitro; cited from earlier work
# postmenopausal women = assay: Microvascular function by peripheral arterial tonometry (Endo-PAT2000), randomized double-blind crossover trial; type: in vivo, human; conditions: combined data; univariate ANOVA with Bonferroni post hoc
# [4] = Plasma resveratrol concentrations (HPLC) after capsule intake; type: in vivo, human; conditions: 90 mg, median (interquartile range), n=30
# Description: The study included two separate investigations: a one hour study and a two hour study (FIG. 1). […] The two hour study was designed to fully assess and compare the responses to trans-res and ResArgin™.
# Participants were randomized by block design to consumed trans-res or ResArgin™ in random order. Randomization was performed by the study coordinator following a predetermined plan formulated via a web-based random number generator. […] The study included two separate investigations: a one hour study and a two hour study (FIG. 6). During each study visit, which took place after an overnight fast, a baseline measurement of PAT and a blood sample were collected, followed by consumption of the assigned treatment. During the one hour study, PAT measurements and blood samples were collected thirty and sixty minutes after the capsules were consumed. During the two hour study, a PAT measurement and blood sample were taken two hours after the capsules were consumed.
# Briefly, plasma was treated with acidified methanol [0.5% (v/v) of acetic acid in methanol; precooled to −20° C.] containing an appropriate recovery standard. The mixture was stored at −80 C for 12 hours to allow for cryo-assisted protein precipitation, and then centrifuged for 15 min at 16,500×g. […]
# humans [5] = conditions: cited from earlier work
# platelets [6] = assay: Platelet function by whole blood/optical lumi-aggregometer after capsule intake; type: in vivo, human
# Description: Platelet reactivity during clinical screening was assessed by a PFA-100 (Siemens, Deerfield, Ill.), which measures platelet function by simulating arterial hemostasis under blood flow shear stress. During the intervention, platelet function was assessed by a whole blood/optical lumi-aggregometer (Chrono-log Model 700, Havertown, Pa.). Briefly, platelet aggregation was measured via electrical impedence (or electrical resistance), whereas lumi-aggregometry was used to examine aggregation together with adenosine triphosphate (hereafter, “ATP”) release, which is determined with firefly luciferin-luciferase system. […] One of the following agonists was used to stimulate platelets: collagen (1 μL and 5 μL), AA (10 μL) or ADP (10 μL). ATP release was measured only when platelets were activated with ADP. The aggregation was measured over a period of six minutes, following the addition of an agonist.
# humans [7] = conditions: cited from earlier work; remark: listed apart in the source
# platelets [8] = conditions: 4 mg/kg/day; cited from earlier work
# animal = conditions: 500 mg/kg, bw/day for 3 months dosing; cited from earlier work
# [9] = 10 mg per day for three months, stable coronary artery disease patients
# [10] = 1 μL collagen, one hour post consumption vs baseline
# [11] = 10 μL arachidonic acid, one hour after intake vs baseline
smiles,measurement,setting,value
"Oc1ccc(/C=C/c2cc(O)cc(O)c2)cc1 [trans-res, Trans-resveratrol]",Cyclooxygenase (COX) activity,cyclooxygenase (COX),can inhibit
same,Platelet aggregation,platelets [1],significantly reduced
same,Expression of eNOS,[2],up-regulated
same,Platelet aggregation,platelets [3],significantly reduced aggregation in a dose dependent fashion
same,FRHI one and two hours post-consumption compared to baseline (significance),postmenopausal women,No differences were observed; also recorded: no changes were noted
same,RHI one hour after intake compared to baseline (significance),postmenopausal women,not observed
same,Plasma resveratrol concentration,[4]; 30 minutes after intake,"2.04 (0.82, 2.54)"
same,Plasma resveratrol concentration,[4]; 60 minutes after intake,"2.65 (1.69, 3.44)"
same,FMD,humans [5]; [9],significant improvement in FMD
same,FMD,humans [5]; 75 mg daily for six weeks,significant increase in FMD
same,FMD,"humans [5]; 75 mg, one hour post-consumption",significant increase in FMD
same,FMD,"humans [5]; single dose of 30, 90 and 270 mg, one hour after consumption",increase in FMD
same,Lag time of platelet aggregation,platelets [6]; [10],significant increase
same,Slope of platelet aggregation,platelets [6]; [10],not for the trans-res group
same,Platelet function changes,"platelets [6]; 5 μL collagen, one hour post consumption vs baseline",no significant changes
same,"Slope, lumi-aggregometry","platelets [6]; 10 μL ADP, one hour post consumption vs baseline",significant decrease
same,Area under the curve (AUC) of aggregation,platelets [6]; [11],no changes were noted
same,Maximum aggregation,platelets [6]; [11],no changes were noted
"Oc1ccc(C=Cc2cc(O)cc(O)c2)cc1 [Resveratrol, 3,5,4′-trihydroxystilbene]",Plasminogen activator inhibitor type 1 (PAI-1),"humans [7]; 8 mg daily for six months, then 16 mg per day for six months",significant decrease
same,Total cholesterol,humans [7]; 250 mg for three months,decrease
same,Low density lipoprotein (LDL) cholesterol,humans [7]; daily intake of 8 mg for six months,Reduction
same,ADP-induced platelet aggregation,platelets [8],inhibited
same,Toxicity in animal studies,animal,no toxicity effect
same,FMD,humans [5]; [9],enhanced FMD response
same,FMD,humans [5]; 75 mg daily for six weeks,enhanced FMD response
